# Experimental data reported in patent US10092570B2 (Incyte Corporation, priority 2011, dated 2018).
# pIC50: −log10 of the molar value.
# Biological target: PI3Kδ (p110δ/p85α) (Homo sapiens (Human), UniProt O00329)
# Test: Example A3: PI3Kδ scintillation proximity assay
# Type: biochemical
# Conditions: scintillation proximity assay, 20 μM ATP, 4 nM PI3Kδ; read-out: PI3Kδ SPA IC50
# Method in brief: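 p110δ/p85α (4 nM) phosphorylated 20 μM PIP2 with 20 μM ATP plus [γ-33P]ATP in MOPS pH 6.7, MgCl2, DTT, CHAPS, 0.5% DMSO, at RT. Stopped with EDTA/excess ATP, product captured on WGA SPA beads overnight and counted; IC50 from percent control activity versus log inhibitor.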
# PI3Kδ (p110δ/p85α), sequence (O00329 whole entry): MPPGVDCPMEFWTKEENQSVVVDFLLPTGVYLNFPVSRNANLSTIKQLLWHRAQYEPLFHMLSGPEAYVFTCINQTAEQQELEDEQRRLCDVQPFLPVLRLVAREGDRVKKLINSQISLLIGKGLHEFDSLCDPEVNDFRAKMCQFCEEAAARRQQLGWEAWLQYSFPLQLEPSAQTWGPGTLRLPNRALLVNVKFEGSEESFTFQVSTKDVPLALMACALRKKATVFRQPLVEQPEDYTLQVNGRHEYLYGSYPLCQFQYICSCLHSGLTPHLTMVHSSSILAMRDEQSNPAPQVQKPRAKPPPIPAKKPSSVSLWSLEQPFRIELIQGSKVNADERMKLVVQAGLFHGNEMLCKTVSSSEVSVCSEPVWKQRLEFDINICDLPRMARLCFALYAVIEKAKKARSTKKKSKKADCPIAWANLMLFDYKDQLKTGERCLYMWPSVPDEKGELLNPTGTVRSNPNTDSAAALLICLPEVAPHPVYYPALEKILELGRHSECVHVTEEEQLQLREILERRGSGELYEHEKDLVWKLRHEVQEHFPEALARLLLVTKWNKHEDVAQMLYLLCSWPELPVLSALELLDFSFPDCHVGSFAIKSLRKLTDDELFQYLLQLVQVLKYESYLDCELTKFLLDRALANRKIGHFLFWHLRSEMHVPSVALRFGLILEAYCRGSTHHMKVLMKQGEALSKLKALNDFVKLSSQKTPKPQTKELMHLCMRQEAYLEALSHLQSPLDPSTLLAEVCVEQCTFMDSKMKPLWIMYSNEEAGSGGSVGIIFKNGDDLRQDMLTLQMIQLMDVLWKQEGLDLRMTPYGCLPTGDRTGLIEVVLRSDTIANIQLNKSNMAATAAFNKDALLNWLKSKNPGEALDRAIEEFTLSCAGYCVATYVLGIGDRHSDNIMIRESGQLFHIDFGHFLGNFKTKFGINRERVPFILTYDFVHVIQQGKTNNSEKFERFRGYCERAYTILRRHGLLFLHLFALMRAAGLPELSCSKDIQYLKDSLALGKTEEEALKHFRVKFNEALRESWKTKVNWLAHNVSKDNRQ
# PI3Kδ (p110δ/p85α), sequence (P27986 whole entry partner): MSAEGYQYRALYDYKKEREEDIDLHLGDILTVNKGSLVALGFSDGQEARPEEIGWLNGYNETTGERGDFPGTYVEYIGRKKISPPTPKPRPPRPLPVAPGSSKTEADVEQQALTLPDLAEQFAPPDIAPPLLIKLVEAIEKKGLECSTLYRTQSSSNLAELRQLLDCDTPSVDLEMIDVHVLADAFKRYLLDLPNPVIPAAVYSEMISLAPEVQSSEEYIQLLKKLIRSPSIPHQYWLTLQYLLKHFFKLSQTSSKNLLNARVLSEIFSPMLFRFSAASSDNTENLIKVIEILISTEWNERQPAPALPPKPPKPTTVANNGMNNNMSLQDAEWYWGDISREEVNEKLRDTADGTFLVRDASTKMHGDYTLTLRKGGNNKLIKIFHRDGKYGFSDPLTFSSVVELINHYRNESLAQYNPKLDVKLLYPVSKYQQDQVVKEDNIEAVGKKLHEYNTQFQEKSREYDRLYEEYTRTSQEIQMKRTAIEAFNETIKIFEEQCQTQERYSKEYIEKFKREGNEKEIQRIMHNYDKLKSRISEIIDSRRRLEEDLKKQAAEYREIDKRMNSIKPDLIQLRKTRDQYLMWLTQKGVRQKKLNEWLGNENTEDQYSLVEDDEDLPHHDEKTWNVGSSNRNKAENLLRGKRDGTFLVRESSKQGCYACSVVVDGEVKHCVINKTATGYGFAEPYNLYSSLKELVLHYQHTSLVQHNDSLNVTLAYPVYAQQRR
row,SMILES,pIC50
1,"COc1c(C(C)n2nc(C(F)F)c3c(N)ncnc32)cc(C#N)c(C)c1C1CN(C[C@H](C)O)C1 (stereo partly drawn) [Example 131, 5-{1-[4-Amino-3-(difluoromethyl)-1H-pyrazolo[3,4-d]pyrimidin-1-yl]ethyl}-3-{1-[(2S)-2-hydroxypropyl]azetidin-3-yl}-4-methoxy-2-methylbenzonitrile]",> 8.00
2,"COc1c(C(C)n2nc(C(F)F)c3c(N)ncnc32)cc(C#N)c(C)c1C1CN(C[C@@H](C)O)C1 (stereo partly drawn) [Example 132, 5-{1-[4-Amino-3-(difluoromethyl)-1H-pyrazolo[3,4-d]pyrimidin-1-yl]ethyl}-3-{1-[(2R)-2-hydroxypropyl]azetidin-3-yl}-4-methoxy-2-methylbenzonitrile]",> 8.00
3,"CNC(=O)[C@H](C)N1CC(c2c(C)c(C#N)cc(C(C)n3nc(C(F)F)c4c(N)ncnc43)c2OC)C1 (stereo partly drawn) [Example 134, (2S)-2-[3-(3-{1-[4-Amino-3-(difluoromethyl)-1H-pyrazolo[3,4-d]pyrimidin-1-yl]ethyl}-5-cyano-2-methoxy-6-methylphenyl)azetidin-1-yl]-N-methylpropanamide]",> 8.00
4,"CNC(=O)[C@@H](C)N1CC(c2c(C)c(C#N)cc(C(C)n3nc(C(F)F)c4c(N)ncnc43)c2OC)C1 (stereo partly drawn) [Example 135, (2R)-2-[3-(3-{1-[4-Amino-3-(difluoromethyl)-1H-pyrazolo[3,4-d]pyrimidin-1-yl]ethyl}-5-cyano-2-methoxy-6-methylphenyl)azetidin-1-yl]-N-methylpropanamide]",> 8.00
5,"CCOc1c(C(C)n2nc(C)c3c(N)ncnc32)cc(Cl)c(F)c1C1CN(C[C@H](C)O)C1 (stereo partly drawn) [Example 143, (2S)-1-(3-{3-[1-(4-Amino-3-methyl-1H-pyrazolo[3,4-d]pyrimidin-1-yl)ethyl]-5-chloro-2-ethoxy-6-fluorophenyl}azetidin-1-yl)propan-2-ol]",> 8.00
6,"CCOc1c(C(C)n2nc(C(F)F)c3c(N)ncnc32)cc(Cl)c(F)c1C1CN(C[C@@H](C)O)C1 (stereo partly drawn) [Example 155, (2R)-1-[3-(3-{1-[4-Amino-3-(difluoromethyl)-1H-pyrazolo[3,4-d]pyrimidin-1-yl]ethyl}-5-chloro-2-ethoxy-6-fluorophenyl)azetidin-1-yl]propan-2-ol]",> 8.00
7,"COc1c(C(C)n2nc(C)c3c(N)ncnc32)cc(Cl)c(C)c1C1CN([C@H](C)CO)C1 (stereo partly drawn) [Example 156, (2R)-2-(3-{3-[1-(4-Amino-3-methyl-1H-pyrazolo[3,4-d]pyrimidin-1-yl)ethyl]-5-chloro-2-methoxy-6-methylphenyl}azetidin-1-yl)propan-1-ol]",> 8.00
8,"COc1c(C(C)n2nc(C)c3c(N)ncnc32)cc(Cl)c(C)c1C1CN(CC(C)(C)O)C1 (stereo not drawn) [Example 158, 1-(3-{3-[1-(4-Amino-3-methyl-1H-pyrazolo[3,4-d]pyrimidin-1-yl)ethyl]-5-chloro-2-methoxy-6-methylphenyl}azetidin-1-yl)-2-methylpropan-2-ol]",> 8.00
9,"COc1c(C(C)n2nc(C)c3c(N)ncnc32)cc(Cl)c(C)c1C1CN([C@H](C)C(=O)N(C)C)C1 (stereo partly drawn) [Example 159, (2R)-2-(3-{3-[1-(4-Amino-3-methyl-1H-pyrazolo[3,4-d]pyrimidin-1-yl)ethyl]-5-chloro-2-methoxy-6-methylphenyl}azetidin-1-yl)-N,N-dimethylpropanamide]",> 8.00
10,"COc1c(C(C)n2nc(C)c3c(N)ncnc32)cc(Cl)c(C)c1C1CN([C@@H](C)C(=O)N(C)C)C1 (stereo partly drawn) [Example 160, (2S)-2-(3-{3-[1-(4-Amino-3-methyl-1H-pyrazolo[3,4-d]pyrimidin-1-yl)ethyl]-5-chloro-2-methoxy-6-methylphenyl}azetidin-1-yl)-N,N-dimethylpropanamide]",> 8.00
11,"COc1c(C(C)n2nc(C)c3c(N)ncnc32)cc(Cl)c(C)c1C1CN(CC(C)C#N)C1 (stereo not drawn) [Example 162, 3-(3-{3-[1-(4-Amino-3-methyl-1H-pyrazolo[3,4-d]pyrimidin-1-yl)ethyl]-5-chloro-2-methoxy-6-methylphenyl}azetidin-1-yl)-2-methylpropanenitrile]",> 8.00
12,"COc1c(C(C)n2nc(C)c3c(N)ncnc32)cc(Cl)c(C)c1-c1cnn(C(C)C(=O)N(C)C)c1 (stereo not drawn) [Example 207, 2-(4-(3-(1-(4-amino-3-methyl-1H-pyrazolo[3,4-d]pyrimidin-1-yl)ethyl)-5-chloro-2-methoxy-6-methylphenyl)-1H-pyrazol-1-yl)-N,N-dimethylpropanamide]",> 8.00
13,"CCOc1c(C(C)n2nc(C)c3c(N)ncnc32)cc(Cl)c(C#N)c1C1CN(C(C)(C)C(=O)OC(C)(C)C)C1 (stereo not drawn) [Example 236, tert-Butyl 2-(3-{3-[1-(4-amino-3-methyl-1H-pyrazolo[3,4-d]pyrimidin-1-yl)ethyl]-5-chloro-6-cyano-2-ethoxyphenyl}azetidin-1-yl)-2-methylpropanoate]",> 8.00
14,"COc1c(C(C)n2nc(C)c3c(N)ncnc32)cc(Cl)c(Cl)c1C1CN(C[C@H](C)O)C1 (stereo partly drawn) [Example 301, (2S)-1-(3-{3-[1-(4-Amino-3-methyl-1H-pyrazolo[3,4-d]pyrimidin-1-yl)ethyl]-5,6-dichloro-2-methoxyphenyl}azetidin-1-yl)propan-2-ol]",> 8.00

# Continued, values first:
row,pIC50,SMILES
1,> 8.00,"COc1c(C(C)n2nc(C)c3c(N)ncnc32)cc(Cl)c(Cl)c1C1CN(C[C@@H](C)O)C1 (stereo partly drawn) [Example 302, (2R)-1-(3-{3-[1-(4-Amino-3-methyl-1H-pyrazolo[3,4-d]pyrimidin-1-yl)ethyl]-5,6-dichloro-2-methoxyphenyl}azetidin-1-yl)propan-2-ol]"
2,> 8.00,"CCOc1c(C(C)n2cc(C)c3c(N)ncnc32)cc(Cl)c(C#N)c1C1CN(C(C)C)C1 (stereo not drawn) [Example 307, 4-[1-(4-Amino-5-methyl-7H-pyrrolo[2,3-d]pyrimidin-7-yl)ethyl]-6-chloro-3-ethoxy-2-(1-isopropylazetidin-3-yl)benzonitrile]"
3,> 8.00,"CCOc1c(C(C)n2cc(C)c3c(N)ncnc32)cc(Cl)c(C#N)c1C1CN(CCO)C1 (stereo not drawn) [Example 308, 4-[1-(4-Amino-5-methyl-7H-pyrrolo[2,3-d]pyrimidin-7-yl)ethyl]-6-chloro-3-ethoxy-2-[1-(2-hydroxyethyl)azetidin-3-yl]benzonitrile]"
4,> 8.00,"CCOc1c(C(C)n2cc(C)c3c(N)ncnc32)cc(Cl)c(C#N)c1C1CN(C[C@H](C)O)C1 (stereo partly drawn) [Example 309, 4-[1-(4-Amino-5-methyl-7H-pyrrolo[2,3-d]pyrimidin-7-yl)ethyl]-6-chloro-3-ethoxy-2-{1-[(2S)-2-hydroxypropyl]azetidin-3-yl}benzonitrile]"
5,> 8.00,"CCOc1c(C(C)n2nc(C)c3c(N)ncnc32)cc(Cl)c(C#N)c1N1CC(OC)C1 (stereo not drawn) [Example 319, 4-[1-(4-amino-3-methyl-1H-pyrazolo[3,4-d]pyrimidin-1-yl)ethyl]-6-chloro-3-ethoxy-2-(3-methoxyazetidin-1-yl)benzonitrile]"
6,> 8.00,"COc1c(C(C)n2nc(C)c3c(N)ncnc32)cc(Cl)c(C)c1C1CNC(=O)O1 (stereo not drawn) [Example 325, 5-{3-[1-(4-Amino-3-methyl-1H-pyrazolo[3,4-d]pyrimidin-1-yl)ethyl]-5-chloro-2-methoxy-6-methylphenyl}-1,3-oxazolidin-2-one]"
7,> 8.00,"COc1c(C(C)n2nc(C)c3c(N)ncnc32)cc(C)c(C#N)c1C1CN(CC(C)(C)O)C1 (stereo not drawn) [Example 328, 4-[-1-(4-amino-3-methyl-1H-pyrazolo[3,4-d]pyrimidin-1-yl)ethyl]-2-[l-(2-hydroxy-2-methylpropyl)azetidin-3-yl]-3-methoxy-6-methylbenzonitrile]"
